The supplement of paper PMC10307832

Columns and labels:
Test in all cases: relative viability (nuclei count vs DMSO), 5 days (fraction); higher = more cells survive
[1] = compound: C1/C(=C\C2=CC=CS2)/C(=O)/C(=C/C3=CC=CS3)/C1 + CC(C)C[C@H](NC(=O)[C@H](Cc1ccccc1)NC(=O)c1cnccn1)B(O)O [Bortezomib] (partner 0.002 µM)
Outline: (§1)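 Relative viability is defined as nuclei in treated wells over nuclei in vehicle wells. Duplicate plates were run and medians reported. Lung cancer cell lines in 1536-well plates were dosed by pin tool one day after seeding, with one drug or with a fixed anchor-drug dose plus five library-drug doses (not always all listed) in √10 steps, and nuclei were counted after 5 days.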

[2] = compound: C1/C(=C\C2=CC=CS2)/C(=O)/C(=C/C3=CC=CS3)/C1 + C[C@]1(O)C[C@@H](c2nc(-c3ccc4ccc(-c5ccccc5)nc4c3)c3c(N)nccn32)C1 [Linsitinib] (partner 1 µM)
Outline: as §1

[3] = compound: C1/C(=C\C2=CC=CS2)/C(=O)/C(=C/C3=CC=CS3)/C1 + N=C(N)NC(=N)NCCc1ccccc1 [Phenformin] (partner 250 µM)
Outline: as §1

Lestaurtinib + Dasatinib = compound: C[C@]12O[C@H](C[C@]1(O)CO)n1c3ccccc3c3c4c(c5c6ccccc6n2c5c31)CNC4=O [Lestaurtinib] + Cc1nc(Nc2ncc(C(=O)Nc3c(C)cccc3Cl)s2)cc(N2CCN(CCO)CC2)n1 [Dasatinib] (partner 0.075 µM)
Outline: as §1

Cell Line | relative viability ([1]; first compound 0.2 µM) | relative viability ([1]; first compound 0.6325 µM) | relative viability ([1]; first compound 2 µM) | relative viability ([1]; first compound 6.325 µM) | relative viability ([1]; first compound 20 µM) | relative viability ([2]; first compound 0.2 µM) | relative viability ([2]; first compound 0.6325 µM) | relative viability ([2]; first compound 2 µM) | relative viability ([2]; first compound 6.325 µM) | relative viability ([2]; first compound 20 µM) | relative viability ([3]; first compound 0.2 µM) | relative viability ([3]; first compound 0.6325 µM) | relative viability ([3]; first compound 2 µM) | relative viability ([3]; first compound 6.325 µM) | relative viability ([3]; first compound 20 µM) | relative viability (Lestaurtinib + Dasatinib; first compound 0.005 µM) | relative viability (Lestaurtinib + Dasatinib; first compound 0.01581 µM) | relative viability (Lestaurtinib + Dasatinib; first compound 0.05 µM) | relative viability (Lestaurtinib + Dasatinib; first compound 0.1581 µM) | relative viability (Lestaurtinib + Dasatinib; first compound 0.5 µM)
LXF-289 | 1.01 | 0.988 | 0.971 | 0.83 | 0.991 | 0.981 | 1.03 | 0.922 | 0.912 | 0.984 | 0.553 | 0.536 | 0.554 | 0.459 | 0.513 | 0.21 | 0.275 | 0.146 | 0.154 | 0.0882
HARA | 1.23 | 1.1 | 1.08 | 0.89 | 1.07 | 0.968 | 1.06 | 0.898 | 0.242 | 0.902 | 0.449 | 0.452 | 0.481 | 0.444 | 0.407 | 0.27 | 0.3 | 0.21 | 0.261 | 0.238
LU99A | 1.21 | 1.13 | 1.26 | 0.668 | 0.941 | 0.535 | 0.497 | 0.574 | 0.353 | 0.61 | 0.771 | 0.819 | 0.857 | 0.819 | 0.801 | 0.518 | 0.528 | 0.387 | 0.298 | 0.215
201T | 1.17 | 1.08 | 1.13 | 1.04 | 1.08 | 1.08 | 0.989 | 1.16 | 0.9 | 0.996 | 0.495 | 0.431 | 0.478 | 0.425 | 0.455 | 0.598 | 0.546 | 0.552 | 0.583 | 0.4
HCC-827 | 1.1 | 1.07 | 0.993 | 0.84 | 1.05 | 1.05 | 0.953 | 0.923 | 0.929 | 0.903 | 0.426 | 0.414 | 0.433 | 0.411 | 0.388 | 0.428 | 0.323 | 0.256 | 0.318 | 0.246
NCI-H1666 | 0.724 | 0.67 | 0.643 | 0.559 | 0.666 | 0.828 | 0.762 | 0.776 | 0.481 | 0.825 | 0.55 | 0.596 | 0.589 | 0.522 | 0.584 | 1.13 | 0.922 | 0.924 | 0.747 | 0.649
NCI-H1915 | 0.982 | 0.97 | 1.02 | 0.908 | 0.895 | 1.14 | 1.08 | 1.09 | 1.04 | 1.1 | 0.365 | 0.378 | 0.362 | 0.205 | 0.37 | 0.37 | 0.272 | 0.243 | 0.236 | 0.191
NCI-H2009 | 1.04 | 0.939 | 1.08 | 0.736 | 0.991 | 1.28 | 1.2 | 1.15 | 0.712 | 1.13 | 0.511 | 0.52 | 0.493 | 0.453 | 0.426 | 0.257 | 0.227 | 0.2 | 0.211 | 0.118
COR-L 105 | 1.02 | 0.73 | 1.03 | 0.678 | 0.662 | 0.976 | 0.905 | 0.939 | 0.766 | 0.878 | 0.526 | 0.491 | 0.499 | – | 0.481 | 0.32 | 0.32 | 0.245 | 0.258 | 0.145
SW 1573 | 0.985 | 1 | 1.09 | 0.834 | 0.949 | 0.765 | 0.839 | 0.959 | 0.744 | 0.829 | 0.397 | 0.412 | 0.355 | 0.363 | 0.398 | 0.605 | 0.454 | 0.246 | 0.162 | 0.0823
NCI-H1975 | 0.435 | 0.421 | 0.361 | 0.334 | 0.367 | 1.02 | 0.947 | 0.957 | 0.808 | 0.9 | 0.399 | 0.388 | – | 0.37 | 0.411 | 0.479 | 0.396 | 0.373 | 0.328 | 0.257
NCI-H3122 | 1.04 | 1.02 | 0.997 | 1.03 | 0.932 | 1.01 | 1.06 | 1.09 | 0.919 | 0.97 | 0.442 | 0.377 | 0.41 | 0.307 | 0.333 | 0.881 | 0.871 | 0.869 | 1.15 | 0.598
NCI-H2347 | 0.847 | 1 | 1.04 | 0.831 | 1.04 | 0.918 | 0.953 | 0.922 | 0.891 | 0.938 | 0.362 | 0.592 | 0.283 | – | 0.49 | 0.278 | 0.15 | 0.319 | 0.252 | 0.253
HCC-78 | 0.623 | 0.464 | 0.534 | 0.463 | 0.301 | 0.649 | 0.554 | 0.57 | 0.535 | 0.496 | 0.654 | 0.78 | 0.945 | 0.603 | 0.695 | 0.341 | 0.669 | 0.294 | 0.25 | 0.218
COR-L23 | 1.12 | 0.983 | 0.978 | 0.946 | 1.01 | 0.981 | 0.921 | 0.875 | 0.838 | 0.887 | 0.458 | 0.465 | 0.376 | 0.433 | 0.476 | 0.539 | 0.699 | 0.296 | 0.455 | 0.121
NCI-H1993 | 1.07 | 0.946 | 1.36 | 0.915 | 1.19 | 0.683 | 0.694 | 0.672 | 0.679 | 0.792 | 0.514 | 0.518 | 0.494 | 0.42 | 0.517 | 0.565 | 0.32 | 0.504 | 0.495 | 0.468
NCI-H2405 | 1.03 | 0.944 | 1.01 | 0.631 | 1 | 0.992 | 1.09 | 1.03 | 0.803 | 1.01 | 0.404 | 0.386 | 0.441 | 0.413 | 0.402 | 0.199 | 0.211 | 0.186 | 0.196 | 0.17
NCI-H2126 | 1.16 | 1.1 | 1.21 | 0.994 | 1.1 | 0.673 | 0.698 | 0.754 | 0.553 | 0.709 | 0.549 | 0.551 | 0.566 | 0.483 | 0.536 | 0.678 | 0.759 | 0.59 | 0.624 | 0.463
NCI-H1734 | 1.03 | 0.953 | 0.906 | 0.805 | 0.881 | 0.902 | 0.931 | 0.947 | 0.782 | 0.875 | 0.415 | 0.403 | 0.443 | 0.363 | 0.412 | 0.48 | 0.518 | 0.42 | 0.263 | 0.143
A-427 | 1.07 | 1.08 | 0.961 | 0.993 | 0.981 | 1.14 | 1.12 | 1.11 | 1.06 | 1.15 | 0.346 | 0.417 | 0.273 | 0.292 | 0.278 | 0.846 | 0.771 | 0.454 | 0.24 | 0.116
RERF-LC-KJ | 1.07 | 1.14 | 1.04 | 0.912 | 1.13 | 0.903 | 0.922 | 0.801 | 0.812 | 0.794 | 0.407 | 0.461 | 0.474 | 0.432 | 0.432 | 0.902 | 0.908 | 0.526 | 0.648 | 0.316
NCI-H727 | 0.783 | 0.947 | 1.04 | 0.698 | 0.815 | 0.263 | 0.302 | 0.314 | 0.228 | 0.263 | 0.64 | 0.642 | 0.671 | 0.525 | 0.494 | 0.402 | 0.285 | 0.459 | 0.542 | 0.231
LCLC-97TM1 | 0.777 | 0.501 | 0.737 | 0.43 | 0.565 | 0.183 | 0.169 | 0.187 | 0.158 | 0.197 | 0.389 | 0.473 | 0.437 | 0.476 | 0.482 | 0.841 | 0.853 | 0.629 | 0.753 | 0.191
BEN | 0.719 | 1.04 | 1.01 | 0.68 | 0.719 | 0.96 | 0.923 | 0.877 | 0.841 | 0.757 | 0.268 | 0.293 | 0.285 | 0.214 | 0.257 | 0.3 | 0.322 | 0.265 | 0.313 | 0.184
NCI-H2023 | 0.964 | 0.942 | 1.21 | 0.869 | 0.868 | 0.794 | 0.684 | 0.668 | 0.731 | 0.679 | 0.414 | 0.488 | 0.439 | 0.396 | 0.383 | 0.674 | 0.586 | 0.422 | 0.473 | 0.159
LC-2-ad | 1.03 | 1.05 | 1.02 | 0.871 | 1.02 | 0.832 | 0.838 | 0.875 | 0.69 | 0.847 | 0.632 | 0.584 | 0.671 | 0.555 | 0.605 | 0.618 | 0.831 | 0.258 | 0.281 | 0.256
ABC-1 | 0.33 | 0.349 | 0.336 | 0.265 | 0.253 | 0.931 | 0.879 | 0.882 | 0.671 | 0.802 | 0.234 | 0.253 | 0.247 | 0.219 | 0.211 | 0.547 | 0.648 | 0.482 | 0.451 | 0.218
